According to ChEMBL document CHEMBL1122660 (J Med Chem, 1984):

Tests used:
[1] = organism: Mus musculus; assay: Percentage change in WBC at optimum dose on day 3; assay type: functional
[2] = tested on: P388; assay: Optimum dose (mg/kg) against P388 leukemic cells; assay type: functional, Mus musculus
[3] = tested on: P388; assay: Minimum effective dose against P388 leukemic cells; assay type: functional; details: Mus musculus, read-out: MED
[4] = tested on: P388; assay: Maximum percent T/C (antitumor activity) against P388 leukemia cells for Mitomycin C; assay type: functional, Mus musculus
[5] = tested on: P388; assay: Maximum percent T/C (antitumor activity) against P388 leukemia cells; assay type: functional, Mus musculus
[6] = tested on: P388; assay: Ratio of optimal dose (OD) and minimum effective dose (MED) required for antitumor activity in mice bearing P-388 lymphocytic leukemia; assay type: functional, Mus musculus
[7] = Partition coefficient between 1-octanol and water containing phosphate buffer at pH 7.4; assay type: physicochemical; details: 1-octanol/water containing phosphate buffer
[8] = organism: Mus musculus; assay: Maximum percent T/C (antitumor activity) against P388 leukemia cells for Mitomycin C. The number of 30-day survivors is given in the parenthesis.; assay type: functional
[9] = Distribution between 1-octanol and water containing phosphate buffer at pH 7.4; assay type: physicochemical; details: 1-octanol/water containing phosphate buffer
[10] = organism: Mus musculus; assay: Maximum percent T/C (antitumor activity) against P388 leukemia cells for the compound. The number of 30-day survivors is given in the parenthesis.; assay type: functional

Row | Structure (SMILES) | Change [1] [%] | OD [2] [mg/kg] | minimal effective dose [3] [mg/kg] | T/C [4] [%] | T/C [5] [%] | Therapeutic ratio [6] | logD [7] | T/C [8] [%] | logD [9] | T/C [10] [%]
1 | COC12[C@@H]3N[C@@H]3CN1C1=C(C(=O)C(Nc3nnc(C)s3)=C(C)C1=O)[C@@H]2COC(N)=O (stereo partly specified) | -32 | 25.6 | 0.8 | 267 | 222 | 32 |  |  |  | 
2 | COC12[C@@H]3N[C@@H]3CN1C1=C(C(=O)C(Nc3cccc(C#N)c3)=C(C)C1=O)[C@@H]2COC(N)=O (stereo partly specified) |  | 12.8 | 0.2 | 156 | 172 | 64 | 0.73 |  |  | 
3 | COC12[C@@H]3N[C@@H]3CN1C1=C(C(=O)C(Nc3ccc(Cl)cc3)=C(C)C1=O)[C@@H]2COC(N)=O (stereo partly specified) |  | 25.6 | 6.4 |  | 144 | 4 | 2.01 | 250 |  | 
4 | COC12[C@@H]3N[C@@H]3CN1C1=C(C(=O)C(Nc3nc(C)c(C)s3)=C(C)C1=O)[C@@H]2COC(N)=O (stereo partly specified) |  | 25.6 | 0.2 | 219 | 188 | 128 |  |  | 1.29 | 
5 | COC12[C@@H]3N[C@@H]3CN1c1c(O)c(C)c(/N=C3/C=CC(=N)N=C3)c(O)c1[C@@H]2COC(N)=O (stereo partly specified) |  | 12.8 | 0.4 | 206 | 277 | 32 |  |  | -0.32 | 
6 | COc1ccc(NC2=C(C)C(=O)C3=C(C2=O)[C@H](COC(N)=O)C2(OC)[C@@H]4N[C@@H]4CN32)cc1 (stereo partly specified) | -76 | 12.8 |  |  |  | 16 | 1.28 | 268 |  | 316
7 | COC12[C@@H]3N[C@@H]3CN1C1=C(C(=O)C(N=C3C=CC(=Nc4c(C)c(O)c5c(c4O)[C@H](COC(N)=O)C4(OC)[C@@H]6N[C@@H]6CN54)C=C3)=C(C)C1=O)[C@@H]2COC(N)=O (stereo partly specified) |  | 25.6 | 1.6 |  | 161 | 8 |  | 250 |  | 
8 | COC12[C@@H]3N[C@@H]3CN1c1c(O)c(C)c(N=C3C=CC(=S)C=C3)c(O)c1[C@@H]2COC(N)=O (stereo partly specified) |  | 25.6 | 1.6 | 250 | 131 | 16 | 1.69 |  |  | 
9 | COC12[C@@H]3N[C@@H]3CN1C1=C(C(=O)C(Nc3nc4cc(Cl)ccc4o3)=C(C)C1=O)[C@@H]2COC(N)=O (stereo partly specified) | -33 | 25.6 | 1.6 | 267 | 178 | 16 |  |  |  | 
10 | COC12[C@@H]3N[C@@H]3CN1c1c(O)c(C)c(/N=C3\C=CC(=O)C=C3C)c(O)c1[C@@H]2COC(N)=O (stereo partly specified) | -34 | 25.6 | 0.4 | 200 | 244 | 64 |  |  |  | 
11 | COc1ccc(NC2=C(C)C(=O)C3=C(C2=O)[C@H](COC(N)=O)C2(OC)[C@@H]4N[C@@H]4CN32)cn1 (stereo partly specified) | -45 | 6.4 | 0.2 | 233 | 211 | 32 |  |  | 0.59 | 
12 | COC12[C@@H]3N[C@@H]3CN1C1=C(C(=O)C(Nc3nc(C)cs3)=C(C)C1=O)[C@@H]2COC(N)=O (stereo partly specified) |  | 6.4 | 0.4 | 224 | 172 | 16 |  |  | 1.16 | 
13 | [H][C@@]12CN3c4c(O)c(C)c(/N=C5C=C/C(=N\CC(=O)O)C=C/5)c(O)c4[C@H](COC(N)=O)C3(OC)[C@]1([H])N2 (stereo partly specified) |  | 25.6 | 0.8 |  |  | 32 | -0.78 | 294 |  | 322
14 | [H][C@@]12CN3c4c(O)c(C)c(/N=C5C=C/C(=N/C(N)=O)C=C\5)c(O)c4[C@H](COC(N)=O)C3(OC)[C@]1([H])N2 (stereo partly specified) |  | 25.6 | 1.6 | 278 | 194 | 16 | 0 |  |  | 
15 | COC12[C@@H]3N[C@@H]3CN1c1c(O)c(C)c(/N=C3/C=CN=N3)c(O)c1[C@@H]2COC(N)=O (stereo partly specified) | -15 | 25.6 | 0.8 | 161 |  |  |  |  |  | 333
16 | COC12[C@@H]3N[C@@H]3CN1c1c(O)c(C)c(N=C3C=CC(=O)C=C3)c(O)c1[C@@H]2COC(N)=O (stereo partly specified) | -27 | 25.6 | 0.2 | 144 | >300 | 128 | 0.63 |  |  | 
17 | COC12[C@@H]3N[C@@H]3CN1c1c(O)c(C)c(N=C3C=CC(=N)C=C3)c(O)c1[C@@H]2COC(N)=O (stereo partly specified) | -64 | 12.8 | < 0.2 |  |  | >64 | 0.07 | 250 |  | >337
18 | COC12[C@@H]3N[C@@H]3CN1C1=C(C(=O)C(Nc3ccc([N+](=O)[O-])cc3)=C(C)C1=O)[C@@H]2COC(N)=O (stereo partly specified) |  | 3.2 | < 0.2 | 233 | 172 | >16 | 1.02 |  |  | 
19 | COC12[C@@H]3N[C@@H]3CN1C1=C(C(=O)C(Nc3cc(C)ns3)=C(C)C1=O)[C@@H]2COC(N)=O (stereo partly specified) |  | 25.6 |  | 325 | 169 | 32 |  |  | -0.3 | 
20 | COC12[C@@H]3N[C@@H]3CN1C1=C(C(=O)C(Nc3nccs3)=C(C)C1=O)[C@@H]2COC(N)=O (stereo partly specified) | -22 | 6.4 | 0.4 | 281 | 194 | 32 |  |  | 0.62 | 
21 | COC12[C@@H]3N[C@@H]3CN1C1=C(C(=O)C(Nc3ccc(I)cc3)=C(C)C1=O)[C@@H]2COC(N)=O (stereo partly specified) |  | 25.6 | 25.6 | 200 | 128 | 1 | 2.42 |  |  | 
22 | COC12[C@@H]3N[C@@H]3CN1C1=C(C(=O)C(Nc3cccnc3)=C(C)C1=O)[C@@H]2COC(N)=O (stereo partly specified) | -33 | 3.2 | 0.2 | 198 | 211 | 16 |  |  | 0.52 | 
23 | COC12[C@@H]3N[C@@H]3CN1C1=C(C(=O)C(Nc3cccc(N)c3)=C(C)C1=O)[C@@H]2COC(N)=O (stereo partly specified) | -17 | 1.6 | < 0.2 | 200 | 222 | >8 | 0.07 |  |  | 
24 | COC12[C@@H]3N[C@@H]3CN1C1=C(C(=O)C(Nc3ccc(C)cc3)=C(C)C1=O)[C@@H]2COC(N)=O (stereo partly specified) | -37 |  |  | 200 | 206 | 32 | 1.86 |  |  | 
